According to patent US11559537B2, “Combination therapies using caspase-1 dependent anticancer agents and PGE2 antagonists” (Trustees of Tufts College, priority 2017, dated 2023):
Where “and” joins values, the source holds several entries; their conditions need not be identical. Equal values may be shown once.

Key:
[1] = target: recombinant human DPP9 (Homo sapiens (Human), UniProt Q86TI2); experiment: In vitro inhibition assay, dipeptidyl peptidase 9; assay type: biochemical; conditions: recombinant human DPP9, Gly-Pro-AMC substrate
[2] = target: recombinant human PREP (Homo sapiens (Human), UniProt P48147); experiment: In vitro inhibition assay, prolyl oligopeptidase; assay type: biochemical; conditions: Z-Gly-Pro-AMC substrate
[3] = target: recombinant human DPPII (Homo sapiens (Human), UniProt Q9UHL4); experiment: In vitro inhibition assay, dipeptidyl peptidase II; assay type: biochemical; conditions: Lys-Pro-AMC substrate, read-out: DPP2
[4] = target: recombinant human DPPIV (Homo sapiens (Human), UniProt P27487); experiment: In vitro inhibition assay, dipeptidyl peptidase IV; assay type: biochemical; conditions: Gly-Pro-AMC substrate, read-out: DPP4
[5] = target: recombinant human DPP8 (Homo sapiens (Human), UniProt Q6V1X1); experiment: In vitro inhibition assay, dipeptidyl peptidase 8; assay type: biochemical; conditions: recombinant human DPP8, Gly-Pro-AMC substrate
[6] = target: recombinant human FAP (Homo sapiens (Human), UniProt Q12884); experiment: In vitro inhibition assay, fibroblast activation protein; assay type: biochemical; conditions: Z-Gly-Pro-AMC substrate
[7] = cited from earlier work
[8] = tested on: MB49 murine urothelial carcinoma; experiment: MB49 efficacy studies; assay type: in vivo, mouse

Sequence of recombinant human FAP (Q12884 whole entry): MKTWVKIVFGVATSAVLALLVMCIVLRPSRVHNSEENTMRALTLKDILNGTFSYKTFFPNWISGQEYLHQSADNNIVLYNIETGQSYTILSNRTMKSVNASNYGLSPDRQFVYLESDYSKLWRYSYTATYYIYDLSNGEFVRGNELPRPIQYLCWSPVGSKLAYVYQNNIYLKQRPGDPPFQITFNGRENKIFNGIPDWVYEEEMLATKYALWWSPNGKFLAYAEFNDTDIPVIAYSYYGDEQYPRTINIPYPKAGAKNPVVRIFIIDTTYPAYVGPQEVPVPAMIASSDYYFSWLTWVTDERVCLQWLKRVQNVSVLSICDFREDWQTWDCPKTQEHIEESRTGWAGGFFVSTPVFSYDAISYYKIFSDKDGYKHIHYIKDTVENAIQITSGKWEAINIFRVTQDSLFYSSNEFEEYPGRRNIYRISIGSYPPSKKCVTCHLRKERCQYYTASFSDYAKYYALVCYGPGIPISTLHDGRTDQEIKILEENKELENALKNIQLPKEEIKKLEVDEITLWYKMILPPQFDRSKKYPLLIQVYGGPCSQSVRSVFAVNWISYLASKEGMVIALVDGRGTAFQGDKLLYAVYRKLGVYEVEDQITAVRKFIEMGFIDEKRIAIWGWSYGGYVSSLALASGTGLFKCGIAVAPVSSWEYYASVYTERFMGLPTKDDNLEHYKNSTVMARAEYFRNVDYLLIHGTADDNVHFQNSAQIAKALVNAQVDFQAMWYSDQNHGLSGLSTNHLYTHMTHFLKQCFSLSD
Sequence of recombinant human DPP8 (Q6V1X1 whole entry): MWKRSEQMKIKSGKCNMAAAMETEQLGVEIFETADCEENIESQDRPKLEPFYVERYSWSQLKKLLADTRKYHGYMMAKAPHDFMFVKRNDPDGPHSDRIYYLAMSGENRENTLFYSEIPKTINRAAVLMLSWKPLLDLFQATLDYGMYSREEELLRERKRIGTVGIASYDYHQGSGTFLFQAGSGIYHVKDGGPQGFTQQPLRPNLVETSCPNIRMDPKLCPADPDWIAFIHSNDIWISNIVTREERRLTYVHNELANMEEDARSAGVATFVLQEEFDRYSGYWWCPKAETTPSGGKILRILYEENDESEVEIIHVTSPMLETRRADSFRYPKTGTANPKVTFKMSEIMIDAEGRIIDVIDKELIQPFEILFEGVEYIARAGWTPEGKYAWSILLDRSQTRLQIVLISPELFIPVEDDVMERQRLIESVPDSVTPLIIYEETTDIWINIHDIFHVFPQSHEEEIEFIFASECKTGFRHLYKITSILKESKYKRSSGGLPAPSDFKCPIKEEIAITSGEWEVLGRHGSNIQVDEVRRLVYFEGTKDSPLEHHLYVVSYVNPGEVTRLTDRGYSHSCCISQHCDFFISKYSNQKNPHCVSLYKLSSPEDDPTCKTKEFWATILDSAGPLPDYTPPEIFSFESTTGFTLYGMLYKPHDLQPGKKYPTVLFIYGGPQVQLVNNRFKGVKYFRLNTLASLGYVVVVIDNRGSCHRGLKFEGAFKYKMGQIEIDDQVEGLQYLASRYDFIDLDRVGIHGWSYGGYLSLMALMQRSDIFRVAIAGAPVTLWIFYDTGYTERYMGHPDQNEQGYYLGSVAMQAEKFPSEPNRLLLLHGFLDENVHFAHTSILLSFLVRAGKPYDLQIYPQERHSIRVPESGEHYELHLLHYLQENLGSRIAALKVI
Sequence of recombinant human DPP9 (Q86TI2 whole entry): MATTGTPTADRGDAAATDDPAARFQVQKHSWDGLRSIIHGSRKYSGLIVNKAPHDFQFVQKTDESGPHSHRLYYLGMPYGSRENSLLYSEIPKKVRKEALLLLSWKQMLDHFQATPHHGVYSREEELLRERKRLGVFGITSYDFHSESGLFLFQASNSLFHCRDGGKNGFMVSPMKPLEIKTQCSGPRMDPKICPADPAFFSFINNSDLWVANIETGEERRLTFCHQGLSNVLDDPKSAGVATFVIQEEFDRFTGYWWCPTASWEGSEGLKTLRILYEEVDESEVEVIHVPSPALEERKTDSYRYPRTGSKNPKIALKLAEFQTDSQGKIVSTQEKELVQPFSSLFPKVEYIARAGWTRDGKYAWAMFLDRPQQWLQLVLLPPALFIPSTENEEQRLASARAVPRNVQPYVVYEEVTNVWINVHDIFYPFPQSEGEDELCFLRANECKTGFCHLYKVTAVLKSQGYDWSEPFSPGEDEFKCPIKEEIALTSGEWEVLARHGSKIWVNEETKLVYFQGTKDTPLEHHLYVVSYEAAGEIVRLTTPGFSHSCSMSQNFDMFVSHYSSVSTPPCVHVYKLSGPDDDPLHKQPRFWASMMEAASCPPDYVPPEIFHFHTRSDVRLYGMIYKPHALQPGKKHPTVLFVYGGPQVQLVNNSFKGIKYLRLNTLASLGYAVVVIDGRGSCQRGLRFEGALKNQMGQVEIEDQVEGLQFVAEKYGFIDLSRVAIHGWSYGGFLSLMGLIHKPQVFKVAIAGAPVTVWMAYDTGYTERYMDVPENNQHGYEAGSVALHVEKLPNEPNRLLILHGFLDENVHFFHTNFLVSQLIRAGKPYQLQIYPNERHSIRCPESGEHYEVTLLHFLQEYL
Sequence of recombinant human DPPIV (P27487 whole entry): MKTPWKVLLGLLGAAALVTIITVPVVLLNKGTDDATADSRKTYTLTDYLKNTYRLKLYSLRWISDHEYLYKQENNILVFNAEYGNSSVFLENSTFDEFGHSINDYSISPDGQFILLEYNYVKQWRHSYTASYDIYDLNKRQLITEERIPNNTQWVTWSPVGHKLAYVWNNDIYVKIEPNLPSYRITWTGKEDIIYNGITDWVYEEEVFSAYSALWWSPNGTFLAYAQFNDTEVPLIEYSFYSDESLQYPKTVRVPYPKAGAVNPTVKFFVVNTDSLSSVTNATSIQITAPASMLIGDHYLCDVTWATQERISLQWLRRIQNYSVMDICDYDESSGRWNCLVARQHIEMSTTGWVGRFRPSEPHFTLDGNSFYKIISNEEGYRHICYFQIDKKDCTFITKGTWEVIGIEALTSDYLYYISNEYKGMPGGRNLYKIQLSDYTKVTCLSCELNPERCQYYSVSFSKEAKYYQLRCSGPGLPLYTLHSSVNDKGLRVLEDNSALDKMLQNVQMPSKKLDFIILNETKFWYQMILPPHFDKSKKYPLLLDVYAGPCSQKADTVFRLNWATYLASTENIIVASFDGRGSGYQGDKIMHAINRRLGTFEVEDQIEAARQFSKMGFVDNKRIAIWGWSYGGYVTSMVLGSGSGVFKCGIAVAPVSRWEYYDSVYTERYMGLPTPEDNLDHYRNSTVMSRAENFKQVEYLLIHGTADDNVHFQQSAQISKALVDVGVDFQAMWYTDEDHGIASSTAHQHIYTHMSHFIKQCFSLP
Sequence of recombinant human PREP (P48147 whole entry): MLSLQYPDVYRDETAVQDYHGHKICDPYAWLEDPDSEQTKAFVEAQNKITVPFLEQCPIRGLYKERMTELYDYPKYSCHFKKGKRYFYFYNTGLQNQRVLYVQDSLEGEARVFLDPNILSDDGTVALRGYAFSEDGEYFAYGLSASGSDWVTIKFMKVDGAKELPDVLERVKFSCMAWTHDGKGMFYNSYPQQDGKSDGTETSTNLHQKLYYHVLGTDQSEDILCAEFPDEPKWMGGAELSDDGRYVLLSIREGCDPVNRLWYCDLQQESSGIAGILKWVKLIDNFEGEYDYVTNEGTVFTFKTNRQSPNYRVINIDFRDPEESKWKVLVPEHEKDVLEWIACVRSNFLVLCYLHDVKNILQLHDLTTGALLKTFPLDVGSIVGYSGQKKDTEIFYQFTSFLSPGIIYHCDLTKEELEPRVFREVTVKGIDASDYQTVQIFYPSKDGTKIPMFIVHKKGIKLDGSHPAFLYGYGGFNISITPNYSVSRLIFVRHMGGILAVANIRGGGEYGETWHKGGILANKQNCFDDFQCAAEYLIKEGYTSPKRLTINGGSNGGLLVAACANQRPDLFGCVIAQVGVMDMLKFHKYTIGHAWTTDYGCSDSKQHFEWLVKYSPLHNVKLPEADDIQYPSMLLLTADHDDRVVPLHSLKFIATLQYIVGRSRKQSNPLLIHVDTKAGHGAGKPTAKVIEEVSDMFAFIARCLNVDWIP

| SMILES | IC50 [2] | IC50 [3] | IC50 [4] | IC50 [6] | also measured |
| --- | --- | --- | --- | --- | --- |
| O=C([C@@H]1CCCCN1)N1Cc2ccc(F)cc2C1 [compound 5323] | > 100 µM | > 100 µM | 60.3 µM | > 100 µM | IC50 [1]: 0.305 µM; IC50 [5]: 0.862 µM |
| NC(=O)C[C@H](N)C(=O)N1Cc2ccc(F)cc2C1 [compound 5316] | > 100 µM | 92.2 µM | > 100 µM | > 100 µM | IC50 [5]: 4.11 µM |
| N[C@H](C(=O)N1Cc2ccc(F)cc2C1)C1CCCCC1 [compound 5311] | > 100 µM | 63.8 µM | > 100 µM | > 100 µM | IC50 [5]: 81 µM |
| CC(C)[C@H](N)C(=O)N1Cc2ccc(F)cc2C1 [compound 5321] | > 100 µM | 44.9 µM | – | > 100 µM | – |
| CC(C)[C@H](N)C(=O)N1CCC[C@H]1B(O)O [compound 2054, Valine-boroProline] | – | – | – | – | efficacy in phase II trials ([7]; in combination with standard cytotoxic chemotherapy): did not meet the endpoints for efficacy; partial response ([7]; phase I, talabostat and rituximab, rituximab-resistant lymphoma): 3 patients; patients with improvement in grade 3 neutropenia ([7]; phase I, thirteen patients, concomitant immunosuppressive chemotherapy): five; tumor regression in combination with celecoxib ([8]; 20 microgram dose of Val-boroPro, individual animal curves): facilitated the achievement of tumor regression; antitumor activity in combination with celecoxib ([8]; MB49 tumor bearing mice, Val-boroPro + celecoxib): increased the antitumor activity of Val-boroPro markedly (statistically significantly) and in a dose-dependent manner |
| CC(C)(C)[C@H](N)C(=O)N1Cc2ccc(F)cc2C1 [compound 5322] | > 100 µM | 36.8 µM | – | > 100 µM | – |
| CC[C@@H](C)C(N)C(=O)N1Cc2ccc(F)cc2C1 (some centres unmarked) [compound 5291, reference compound] | > 100 µM | – | – | > 100 µM | – |
| C[C@H](N)C(=S)N1CCC[C@H]1B(O)O [compound 2243] | – | – | – | 0.13 µM | – |
| N[C@H](C(=O)N1Cc2ccccc2C1)C1CCCCC1 [3360 C] | – | – | 1.38 µM | – | – |
| CN(CB(O)O)C(=O)[C@@H](N)CCC(=O)O [compound 2408] | – | 1.7 µM | – | 11 µM | – |
| N[C@H](C(=O)N1Cc2ccc(F)cc2C1)C1CCCC1 [compound 5333] | – | 26.5 µM | – | > 100 µM | – |
| CC[C@@H](C)[C@H](N)C(=O)N1CCC[C@H]1B(O)O [compound 4317] | – | 0.012 µM | 0.002 µM | – | – |
| CC(C)(C)[C@H](N)C(=O)N1CCC[C@H]1C#N [compound 9987] | > 100 µM | > 100 µM | – | – | – |
| N[C@H](C(=O)N1CCC[C@H]1B(O)O)C1CCCCC1 [compound 1797] | – | 0.0021 µM | 0.0012 µM | – | – |
| CN(C)C(=O)C[C@H](N)C(=O)N1Cc2ccc(F)cc2C1 [compound 5317] | > 100 µM | 22.1 µM | 54.8 µM | > 100 µM | – |
| NC1(C(=O)N2CCSC2)CCNCC1 [compound 5554] | 25.1 µM | 36.5 µM | > 100 µM | > 100 µM | IC50 [1]: > 100 µM; IC50 [5]: > 100 µM |
| CC(C)[C@H](N)C(=O)N1CCC[C@H]1C(=O)CO [compound 5298] | > 100 µM | 4.18 µM | 0.0045 µM | > 100 µM | – |

| SMILES | IC50 [2] | IC50 [3] | IC50 [4] | IC50 [6] | also measured |
| --- | --- | --- | --- | --- | --- |
| O=C([C@@H]1CCCN1)N1CCC[C@H]1B(O)O [compound 1181] | – | 0.054 µM | 0.0013 µM | – | – |
| NC1(C(=O)N2Cc3ccccc3C2)CCNCC1 [compound 5553] | – | 0.978 µM | > 100 µM | > 100 µM | IC50 [5]: > 100 µM |
| NC1(C(=O)N2Cc3ccc(F)cc3C2)CCNCC1 [compound 5552] | – | > 100 µM | – | 41.1 µM | IC50 [1]: > 100 µM; IC50 [5]: > 100 µM |
| NCCCC[C@H](N)C(=O)N1CCC[C@H]1B(O)O [compound 1700] | – | – | 0.0013 µM | – | – |
| N[C@@H](Cc1ccccc1)C(=O)N1CCC[C@H]1B(O)O [compound 1336] | – | – | 0.002 µM | – | – |
| CC[C@H](C)[C@H](N)C(=O)N1CCC[C@H]1B(O)O [compound 4316] | – | 0.0078 µM | 0.0012 µM | – | – |
| CC(C)[C@@H](C(=O)N1CCC[C@H]1B(O)O)N(C)C [2504 C] | – | 10 µM | – | – | – |
| CC(C)C[C@H](N)C(=O)N1CCC[C@H]1B(O)O [compound 1454] | – | 0.001 µM | 0.0016 µM | 0.15 µM | – |
| CC(C)[C@H](N)C(=O)N1C[C@H](O)C[C@H]1B(O)O [compound 4312] | – | 6.4 µM | 0.002 µM | – | – |
| CC(C)[C@H](N)C(=O)N1C[C@@H](O)C[C@H]1B(O)O [4312 S] | – | 0.61 µM | 0.009 µM | – | – |
| CC[C@H](N)C(=O)N1CCC[C@H]1B(O)O [compound 5466] | – | 0.0029 µM | – | – | – |
| NCCCC[C@H](N)C(=O)N1Cc2ccc(F)cc2C1 [compound 5325] | > 100 µM | 0.842 µM | > 100 µM | > 100 µM | IC50 [5]: 0.123 µM |
| Cc1ccc(-c2cc(C(F)(F)F)nn2-c2ccc(S(N)(=O)=O)cc2)cc1 [celecoxib] | – | – | – | – | tumor growth rates compared to control (vehicle) ([8]; celecoxib alone, various concentrations, MB49 tumor bearing mice): no observed differences in tumor growth rates compared to control |
| N[C@@H](CCC(=O)O)C(=O)N1CCC[C@H]1B(O)O [compound 8120] | – | 0.012 µM | 0.0011 µM | – | – |
| C[C@H](N)C(=O)N1CCC[C@H]1B(O)O [compound 1129] | – | 0.0014 µM and 0.001 µM | – | – | – |
| CC[C@@H](C)[C@H](N)C(=O)N1Cc2ccccc2[C@H]1B(O)O [1049 C] | > 100 µM | 0.095 µM | – | – | – |
